Experimental data reported in patent US5908781A, “Monoclonal antibodies to ceftiofur” (The United States of America as represented by the …, priority 1996, dated 1999).

Tests used:
[1] = molecular target: Cef-68; assay: Competitive indirect ELISA (ciELISA), competitor inhibition of MAb Cef-68 binding; design: species or system Balb/c mice; details: for IC50 (ppb) Values for Antibodies, Cef-68: MAb Cef-68, final dilution 1:20, BSA-S-GMBS-Cef-coated plates, value ± standard deviation, average of 3-6 determinations; for binding with MAb Cef-68 (in words): ciELISA cross-reactivity
Procedure: (§1) The supernatant culture fluid from the cloned hybridomas may also be screened to select for those producing antibodies having a high affinity for ceftiofur. Affinity may be measured using a variety of well known techniques, such as ELISA, RIA or equilibrium dialysis using labeled ceftiofur. […] In accordance with this embodiment, the antibody containing supernatant is added to a ceftiofur or ceftiofur-complex coated substrate such as the wells of a microtiter plate, together with a range of concentrations of free ceftiofur as a competitor. Following incubation and washing, bound antibody in the wells is determined in the same manner as the db-ELISA. Percent inhibition may be calculated as (1-B/Bo)×100, where B is the optical density (OD) of a well with a competitor and Bo is the mean OD of the wells without competitor (control). […] However, for greater accuracy, the affinity may be alternatively measured at 50% inhibition (IC50).
(§2) Antibodies and ELISA Methods. A standard indirect ELISA method in which the hapten conjugate is immobilized on 96-well microtiter plates was used to evaluate the response of Balb/c mice towards the immunogen KLH-SMCC-desCef. The microtiter immunoplates (PGC Scientifics, Gaithersburg, Md.) were washed three times with a solution of 0.05% (v/v) polyoxyethylene sorbitan monolaurate (TWEEN 20)(Sigma Chemical Co., St. Louis, Mo.) in deionized water (TWEEN 20-water) and then coated with 100 μL of the coating antigen, BSA-SMCC-desCef (100 ng/well) in deionized water. The plates were dried overnight at 37° C. The plates were then washed three times with PBS-9 (0.01M sodium phosphate, 0.15M sodium chloride, pH 9) and the unbound active sites were blocked with 200 μL of 3% (w/v) nonfat milk in PBS-9 for 30 min at 37° C. The plates were washed three times with PBS-9, and 100 μL of supernatant containing the antibody was added to the microtiter plates, which were subsequently incubated for 60 min at 37° C. The unbound antibody was removed by washing the plate five times with TWEEN 20-water. Next, 50 μL of goat anti-mouse IgG-peroxidase conjugate (1:500 dilution)(Sigma Chemical Co., St. Louis, Mo.) was added, followed by incubation of the plates at 37° C. for 60 min. Finally, the plates were washed five times with TWEEN 20-water, 100 μL of K-blue substrate (Elisa Technologies, Lexington, Ky.) was added, and the absorbance was read at 655 nm.
(§3) For the ciELISA, the plates were prepared as above except that BSA-S-GMBS-Cef was used as the plate-coating antigen. Competitors were prepared in assay buffer (0.1M Tris, 0.15M sodium chloride, 0.01% (w/v) nonfat milk in deionized water, pH 7.75), added to the wells, and diluted in a 2-fold fashion immediately prior to addition of the anticeftiofur monoclonal antibody (Mab). Tissue culture media containing the anticeftiofur MAbs were used at a final dilution of 1:20 and 1:100 (for MAbs Cef-68 and Cef-116, respectively). The following competitors were used in a cross-reactivity study: ceftiofur sodium, cefteram sodium (Hoffmann-La Roche Inc., Nutley, N.J.), ceftriaxone sodium (Hoffmann-La Roche), cefuroxime sodium (Glaxo Man. Serv. Ltd., Barnard Castle, County Durham, England), ceftazidime pentahydrate (Glaxo), amoxicillin, ampicillin sodium, cefaclor, cefadroxil, cefamandole sodium, cefazolin sodium, cefoperazone sodium, cefotaxime sodium, cefoxitin sodium, cefsulodin sodium, cephalothin sodium, cephapirin sodium, cephradine, cloxacillin sodium, and penicillin-G sodium. Except where indicated otherwise, competitors were obtained from Sigma Chemical Co. (St. Louis, Mo.). The competitors were diluted to afford a solution containing a concentration range of 100-1000 ng/well in column 2 of the 96-well microtiter plates. Each competitor was serially diluted across the plate with columns 11 and 12 serving as controls (i.e. no competitor).

[2] = molecular target: Cef-116; assay: Competitive indirect ELISA (ciELISA), competitor inhibition of MAb Cef-116 binding; design: species or system Balb/c mice; details: for IC50 (ppb) Values for Antibodies, Cef-116: MAb Cef-116, final dilution 1:100, BSA-S-GMBS-Cef-coated plates, value ± standard deviation, average of 3-6 determinations; for IC50 compared to ceftiofur, MAb Cef-116 (in words): ciELISA cross-reactivity; for fold reduction of binding: MAb Cef-116, printed "as compared to MAb Cef-68"
Procedure: as §1, §2, §3

IC50 (ppb) Values for Antibodies, Cef-68 [1] | binding with MAb Cef-68 (in words) [1] | IC50 (ppb) Values for Antibodies, Cef-116 [2] | fold reduction of binding [2] | SMILES | IC50 compared to ceftiofur, MAb Cef-116 (in words) [2]
38.67 ± 8.62 ppb | observed to bind | 0.33 ± 0.05 ppb |  | CO/N=C(\C(=O)N[C@@H]1C(=O)N2C(C(=O)O)=C(CSc3nc(=O)c(=O)[nH]n3C)CS[C@H]12)c1csc(N)n1 [Ceftriaxone, ceftriaxone] | IC50 values comparable to those observed with ceftiofur
 |  | 406.67 ± 130.13 ppb | 100 fold | CO/N=C(\C(=O)N[C@@H]1C(=O)N2C(C(=O)O)=C(COC(N)=O)CS[C@H]12)c1ccco1 [Cefuroxime, cefuroxime] | 
200.00 ± 10.00 ppb | observed to bind | 3.57 ± 0.75 ppb | 10 fold | CO/N=C(\C(=O)N[C@@H]1C(=O)N2C(C(=O)O)=C(Cn3nnc(C)n3)CS[C@H]12)c1csc(N)n1 [Cefteram, cefteram] | 
79.67 ± 0.58 ppb | observed to bind | 0.48 ± 0.05 ppb |  | CO/N=C(\C(=O)N[C@@H]1C(=O)N2C(C(=O)O)=C(COC(C)=O)CS[C@H]12)c1csc(N)n1 [Cefotaxime, cefotaxime] | IC50 values comparable to those observed with ceftiofur
32.33 ± 0.58 ppb |  | 0.33 ± 0.05 ppb |  | CO/N=C(\C(=O)N[C@@H]1C(=O)N2C(C(=O)O)=C(CSC(=O)c3ccco3)CS[C@H]12)c1csc(N)n1 [Ceftiofur, ceftiofur] | 
